Source: PubChem BioAssay (NCI)
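The compound was tested at five concentrations on cells cultured in 96-well plates, with a 48-hour exposure period. TGI: total growth inhibition.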

Key:
Assay in all cases: NCI-60 cell line screen, 48 h
[1] = tested on: DMS 114 small cell lung
[2] = tested on: DLD-1 colon
[3] = tested on: OVCAR-8 ovarian
[4] = tested on: SK-OV-3 ovarian
[5] = tested on: HOP-92 NSCLC
[6] = tested on: SN12C renal
[7] = tested on: MALME-3M melanoma
[8] = tested on: RPMI-8226 leukemia
[9] = tested on: SK-MEL-2 melanoma
[10] = tested on: SF-268 CNS
[11] = tested on: UACC-62 melanoma
[12] = tested on: NCI-H522 lung
[13] = tested on: NCI-H226 lung
[14] = tested on: SW-620 colon
[15] = tested on: CAKI-1 renal
[16] = tested on: SNB-75 CNS
[17] = tested on: 786-0 renal
[18] = tested on: MOLT-4 leukemia
[19] = tested on: EKVX NSCLC
[20] = tested on: SNB-19 CNS
[21] = tested on: OVCAR-4 ovarian
[22] = tested on: A549 NSCLC
[23] = tested on: CCRF-CEM leukemia
[24] = tested on: NCI-H460 lung
[25] = tested on: KM12 colon
[26] = tested on: LOX IMVI melanoma
[27] = tested on: NCI-H23 lung
[28] = tested on: TK-10 renal
[29] = tested on: SF-295 CNS
[30] = tested on: IGROV1 ovarian
[31] = tested on: U251 CNS
[32] = tested on: DMS 273 small cell lung
[33] = tested on: KM20L2 colon
[34] = tested on: LXFL 529 NSCLC
[35] = tested on: K-562 leukemia
[36] = tested on: COLO 205 colon
[37] = tested on: A498 renal
[38] = tested on: M19-MEL melanoma
[39] = tested on: HOP-18 NSCLC
[40] = tested on: UO-31 renal
[41] = tested on: XF 498 CNS
[42] = tested on: M14 melanoma
[43] = tested on: HT29 colon
[44] = tested on: SNB-78 CNS
[45] = tested on: SF-539 CNS
[46] = tested on: UACC-257 melanoma
[47] = tested on: SK-MEL-5 melanoma
[48] = tested on: RXF 393 renal
[49] = tested on: OVCAR-5 ovarian
[50] = tested on: HCT-116 colon
[51] = tested on: HCT-15 colon
[52] = tested on: HL-60(TB) leukemia
[53] = tested on: HOP-62 NSCLC
[54] = tested on: OVCAR-3 ovarian
[55] = tested on: SK-MEL-28 melanoma
[56] = tested on: ACHN renal
[57] = tested on: HCC-2998 colon

Measured: TGI

N#Cc1cccc(N2C(=O)c3ccc(C(=O)c4ccc5c(c4)C(=O)N(c4cccc(C#N)c4)C5=O)cc3C2=O)c1
> 100 µM: [1] | [2] | [3] | [4] | [5] | [6] | [7] | [8] | [9] | [10] | [11] | [12] | [13] | [14] | [15] | [16] | [17] | [18] | [19] | [20] | [21] | [22] | [23] | [24] | [25] | [26] | [27] | [28] | [29] | [30] | [31] | [32] | [33] | [34] | [35] | [36] | [37] | [38] | [39] | [40] | [41] | [42] | [43] | [44] | [45] | [46] | [47] | [48] | [49] | [50] | [51] | [52] | [53] | [54]

Cc1cn(C2CC(n3cncn3)C(C(C)O)O2)c(=O)[nH]c1=O (stereo not drawn)
> 100 µM: [1] | [2] | [3] | [4] | [5] | [6] | [7] | [8] | [9] | [10] | [11] | [12] | [13] | [55] | [14] | [16] | [17] | [18] | [19] | [20] | [21] | [22] | [23] | [24] | [25] | [26] | [27] | [28] | [29] | [30] | [31] | [32] | [33] | [34] | [35] | [36] | [56] | [38] | [39] | [40] | [41] | [42] | [43] | [44] | [45] | [46] | [47] | [48] | [49] | [50] | [57] | [51] | [52] | [54]
